Laboratory results: patent US11390604B2 (Hoffmann-La Roche Inc., priority 2019, dated 2022)
Where a name gives a salt, the structure may show the parent alone.

These compounds were tested on Acinetobacter baumannii ATCC 17961 (assay: Antimicrobial susceptibility testing: 90% growth inhibitory concentration (IC90) determination). Conditions: ATCC17961, Acinetobacter baumannii ATCC 17961, Iso-Sensitest broth, read-out: ATCC 17961 IC90.
Type: cell-based
Method in brief: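 Growth was followed kinetically by OD600 at 20-min intervals for 16 h at 35±2 °C, with ~5×10^5 CFU/ml in Iso-Sensitest broth. Compounds were tested as twofold dilutions (e.g. 50–0.097 μM final). The concentration giving 90% inhibition of log-phase growth was reported.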
Compound `CC(C)Cn1cc(-c2cnc(C(=O)Nc3ccc(C(=O)N4CCN(C(=O)C5CCNCC5)CC4)c(Cl)c3)n2C)c(C(F)(F)F)n1` [Example 27, N-(3-chloro-4-(4-(piperidine-4-carbonyl)piperazine-1-carbonyl)phenyl)-5-(1-isobutyl-3-(trifluoromethyl)-1H-pyrazol-4-yl)-1-methyl-1H-imidazole-2-carboxamide] has an IC90 of 531 nM.
`Cn1c(-c2cn(C3CC3)nc2C(F)(F)F)cnc1C(=O)Nc1ccc(C(=O)N2CCC(C3CCNCC3)CC2)c(Cl)c1` [Example 323, N-(4-([4,4′-bipiperidine]-1-carbonyl)-3-chlorophenyl)-5-(1-cyclopropyl-3-(trifluoromethyl)-1H-pyrazol-4-yl)-1-methyl-1H-imidazole-2-carboxamide formate] showed an IC90 of 407 nM.
With `Cn1c(-c2cn(C3CC3)nc2C(F)(F)F)cnc1C(=O)Nc1ccc(C(=O)NCCCCCCNC(=O)NCC2CNC2)c(Cl)c1` [Example 378, N-[4-[6-(azetidin-3-ylmethylcarbamoylamino)hexyl-carbamoyl]-3-chlorophenyl]-5-[1-cyclopropyl-3-(trifluoromethyl)pyrazol-4-yl]-1-methylimidazole-2-carboxamide;formic acid] the IC90 was 497 nM.
Work on `Cn1c(-c2cn(C3CC3C(F)(F)F)nc2C(F)(F)F)cnc1C(=O)Nc1ccc(C(=O)N2CCN(C(=O)C3CCNCC3)CC2)c(Cl)c1` (centres unmarked) [Example 379, N-(3-chloro-4-(4-(piperidine-4-carbonyl)piperazine-1-carbonyl)phenyl)-1-methyl-5-(3-(trifluoromethyl)-1-(2-(trifluoromethyl)cyclopropyl)-1H-pyrazol-4-yl)-1H-imidazole-2-carboxamide formate] yielded an IC90 of 499 nM.
With `Cn1c(-c2cn(C3CC3(F)F)nc2C(F)(F)F)cnc1C(=O)Nc1ccc(C(=O)NC2[C@H]3CN(C(=O)NC(CN)CCl)C[C@@H]23)c(Cl)c1` (stereo partly drawn) [Example 248, cis-N-(1-amino-3-chloropropan-2-yl)-6-[[2-chloro-4-[[5-[1-(2,2-difluorocyclopropyl)-3-(trifluoromethyl)pyrazol-4-yl]-1-methylimidazole-2-carbonyl]amino]benzoyl]amino]-3-azabicyclo[3.1.0]hexane-3-carboxamide, formate salt] the IC90 was 297 nM.
For `Cn1c(-c2cn(C3CC3)nc2C(F)(F)F)cnc1C(=O)Nc1ccc(C(=O)N2CCN(C(=O)[C@H]3CCCN3)CC2)c(Cl)c1` [Example 250, (R)-N-(3-chloro-4-(4-prolylpiperazine-1-carbonyl)phenyl)-5-(1-cyclopropyl-3-(trifluoromethyl)-1H-pyrazol-4-yl)-1-methyl-1H-imidazole-2-carboxamide hydrochloride], the IC90 was 302 nM.
Work on `Cn1c(-c2cn(C3CC3)nc2C(F)(F)F)cnc1C(=O)Nc1ccc(C(=O)N2CCN(C(=O)N[C@H]3C[C@H](N)C3)CC2)c(Cl)c1` [Example 225, N-(3-aminocyclobutyl)-4-[2-chloro-4-[[5-[1-cyclopropyl-3-(trifluoromethyl)pyrazol-4-yl]-1-methylimidazole-2-carbonyl]amino]benzoyl]pipera-zine-1-carboxamide;formic acid] yielded an IC90 of 256 nM.
`C#CCn1cc(-c2cnc(C(=O)Nc3ccc(C(=O)N4CCN(C(=O)NC5CC6(CNC6)C5)CC4)c(Cl)c3)n2C)c(C(F)(F)F)n1` [Example 89, N-(2-azaspiro[3.3]heptan-6-yl)-4-[2-chloro-4-[[1-methyl-5-[1-prop-2-ynyl-3-(trifluoromethyl)pyrazol-4-yl]imidazole-2-carbonyl]amino]benzoyl]piperazine-1-carboxamide] was tested, and the IC90 was 235 nM.
In the case of `Cn1c(-c2cn(CCn3cccn3)nc2C(F)(F)F)cnc1C(=O)Nc1ccc(C(=O)N2CCN(C(=O)C3CCNCC3)CC2)c(Cl)c1` [Example 23, 5-(1-(2-(1H-pyrazol-1-yl)ethyl)-3-(trifluoromethyl)-1H-pyrazol-4-yl)-N-(3-chloro-4-(4-(piperidine-4-carbonyl)piperazine-1-carbonyl)phenyl)-1-methyl-1H-imidazole-2-carboxamide formate], the IC90 is reported as 1420 nM.
With `Cn1c(-c2cn(C3C=C(F)C3)nc2C(F)(F)F)cnc1C(=O)Nc1ccc(C(=O)N[C@H]2[C@@H]3CN(C(=O)C4CCNCC4)C[C@@H]32)c(Cl)c1` (stereo partly drawn) [Example 259, N-(3-chloro-4-(((exo)-3-(piperidine-4-carbonyl)-3 azabicyclo[3.1.0]hexan-6-yl)carbamoyl)phenyl)-5-(1-(3-fluorocyclobut-2-en-1-yl)-3-(trifluoromethyl)-1H-pyrazol-4-yl)-1-methyl-1H-imidazole-2-carboxamide formate] the IC90 was 314 nM.
Compound `Cc1nc(Cn2cc(-c3cnc(C(=O)Nc4ccc(C(=O)NC5CC(N)C5)c(Cl)c4)n3C)c(C(F)(F)F)n2)cs1` (centres unmarked) [Example 124, N-[4-[(3-aminocyclobutyl)carbamoyl]-3-chlorophenyl]-1-methyl-5-[1-[(2-methyl-1,3-thiazol-4-yl)methyl]-3-(trifluoromethyl)pyrazol-4-yl]imidazole-2-carboxamide;hydrochloride] has an IC90 of 1800 nM.
With `Cn1c(-c2cn(CCF)nc2C(F)(F)F)cnc1C(=O)Nc1ccc(C(=O)N2CCN(C3=NC(CN)CO3)CC2)c(Cl)c1` (centres unmarked) [Example 145, N-[4-[4-[4-(aminomethyl)-4,5-dihydro-1,3-oxazol-2-yl]piperazine-1-carbonyl]-3-chlorophenyl]-5-[1-(2-fluoroethyl)-3-(trifluoromethyl)pyrazol-4-yl]-1-methylimidazole-2-carboxamide;formic acid] the IC90 was 928 nM.
`Cn1c(-c2cn(C3CC3)nc2C(F)(F)F)cnc1C(=O)Nc1ccc(C(=O)N2CCN(C(=O)NC3CNC3)CC2)c(Cl)c1` [Example 233, N-(azetidin-3-yl)-4-[2-chloro-4-[[5-[1-cyclopropyl-3-(trifluoromethyl)pyrazol-4-yl]-1-methyl-imidazole-2-carbonyl]amino]benzoyl]pipera-zine-1-carboxamide; formic acid] was tested, and the IC90 was 267 nM.
`Cn1c(-c2cn(CC#N)nc2C(F)(F)F)cnc1C(=O)Nc1ccc(C(=O)N[C@H]2C[C@@H](NC(=O)N3CC4CC3CN4)C2)c(Cl)c1` (some centres unmarked) [Example 328, N-[3-[[2-chloro-4-[[5-[1-(cyanomethyl)-3-(trifluoromethyl)pyrazol-4-yl]-1-methyl-imidazole-2-carbonyl]amino]benzoyl]amino]cyclobutyl]-2,5-diazabicyclo[2.2.1]heptane-2-carboxamide; formic acid] was tested, and the IC90 was 420 nM.
`C#CCn1cc(-c2cnc(C(=O)Nc3ccc(C(=O)N4CCN(C(=O)[C@H]5CCCN5)CC4)c(Cl)c3)n2C)c(C(F)(F)F)n1` [Example 38, N-[3-chloro-4-[4-[(2R)-pyrrolidine-2-carbonyl]piperazine-1-carbonyl]phenyl]-1-methyl-5-[1-prop-2-ynyl-3-(trifluoromethyl)pyrazol-4-yl]imidazole-2-carboxamide hydrochloride] showed an IC90 of 275 nM.
Work on `Cn1c(-c2cn(CC#N)nc2C(F)(F)F)cnc1C(=O)Nc1ccc(C(=O)N2CCN(C(=O)C3(O)CCCNC3)CC2)c(Cl)c1` (centres unmarked) [Example 72, N-[3-chloro-4-[4-(3-hydroxypiperidine-3-carbonyl)piperazine-1-carbonyl]phenyl]-5-[1-(cyanomethyl)-3-(trifluoromethyl)pyrazol-4-yl]-1-methylimidazole-2-carboxamide;2,2,2-trifluoroacetic acid] yielded an IC90 of 2260 nM.
Compound `CSc1ccc(NC(=O)c2ncc(-c3cn(CC(F)F)nc3C(F)(F)F)n2C)cc1C` [Example 308, 5-[1-(2,2-difluoroethyl)-3-(trifluoromethyl)pyrazol-4-yl]-1-methyl-N-(3-methyl-4-methylsulfanyl-phenyl)imidazole-2-carboxamide] has an IC90 of 377 nM.
For `Cn1c(-c2cn(CC(F)F)nc2C(F)(F)F)cnc1C(=O)Nc1ccc(C(=O)N2CCN(CCN)CC2)c(Cl)c1` [Example 290, N-(4-(4-(2-aminoethyl)piperazine-1-carbonyl)-3-chlorophenyl)-5-(1-(2,2-difluoroethyl)-3-(trifluoromethyl)-1H-pyrazol-4-yl)-1-methyl-1H-imidazole-2-carboxamide formate], the IC90 was 358 nM.
In the case of `CN(C)CC(=O)N1CCN(S(=O)(=O)c2ccc(NC(=O)c3ncc(-c4c[nH]nc4C(F)(F)F)n3C)cc2Cl)CC1` [Example 58, N-(3-Chloro-4-((4-(dimethylglycyl)piperazin-1-yl)sulfonyl)phenyl)-1-methyl-5-(3-(trifluoromethyl)-1H-pyrazol-4-yl)-1H-imidazole-2-carboxamide], the IC90 is reported as 952 nM.
`C#CCn1cc(-c2cnc(C(=O)Nc3ccc(C(=O)N4CCN(C(=O)C5CCNCC5)CC4)c(F)c3)n2C)c(C(F)(F)F)n1` [Example 261, N-(3-fluoro-4-(4-(piperidine-4-carbonyl)piperazine-1-carbonyl)phenyl)-1-methyl-5-(1-(prop-2-yn-1-yl)-3-(trifluoromethyl)-1H-pyrazol-4-yl)-1H-imidazole-2-carboxamide] showed an IC90 of 323 nM.
In the case of `Cn1c(-c2cn(C3CC3)nc2C(F)(F)F)cnc1C(=O)Nc1ccc(C(=O)N[C@H]2[C@@H]3CN(C(=O)C4CCNCC4)C[C@@H]32)c(Cl)c1` [Example 306, N-(3-chloro-4-((exo-3-(piperidine-4-carbonyl)-3-azabicyclo[3.1.0]hexan-6-yl)carbamoyl)phenyl)-5-(1-cyclopropyl-3-(trifluoromethyl)-1H-pyrazol-4-yl)-1-methyl-1H-imidazole-2-carboxamide], the IC90 is reported as 374 nM.
Compound `C#CCn1cc(-c2cnc(C(=O)Nc3ccc(C(N)=O)c(Cl)c3)n2C)c(C(F)(F)F)n1` [Example 41, N-(4-Carbamoyl-3-chlorophenyl)-1-methyl-5-(1-(prop-2-yn-1-yl)-3-(trifluoromethyl)-11-pyrazol-4-yl)-1H-imidazole-2-carboxamide] has an IC90 of 801 nM.

Same assay, conditions: Acinetobacter baumannii ATCC 17961, Iso-Sensitest broth, read-out: ATCC 17961 IC90
With `C=CCn1cc(-c2cnc(C(=O)Nc3ccc(C(=O)NC4CC(N)C4)c(Cl)c3)n2C)c(C(F)(F)F)n1` (centres unmarked) [Example 126, N-[4-[(3-aminocyclobutyl)carbamoyl]-3-chlorophenyl]-1-methyl-5-[1-prop-2-enyl-3-(trifluoromethyl)pyrazol-4-yl]imidazole-2-carboxamide;2,2,2-trifluoroacetic acid] the IC90 was 293 nM.
